Test results as given in article PMC11201660 (Biomolecules, 2024).

What was measured:
[1] = MTS cytotoxicity assay, 24-h exposure of liver cell line; conditions: human, HepG2 cells, IC50 HepG2 (cytotoxicity), tested 3 to 400 μM
human BChE = human BChE (Homo sapiens, UniProt P06276); experiment: biochemical; assay type: biochemical
human AChE = biological target: T1, human AChE (Homo sapiens, UniProt P22303); experiment: biochemical; assay type: biochemical
T1 construct: gift from Dr. Zoran Radić, Skaggs School of Pharmacy and Pharmaceutical Sciences, UCSD

HepG2 = experiment: MTS cytotoxicity assay, 24-h exposure of liver cell line; conditions: read-out: IC50 HepG2 (cytotoxicity), tested 3 to 400 μM

Chain of human BChE (P06276 29-602): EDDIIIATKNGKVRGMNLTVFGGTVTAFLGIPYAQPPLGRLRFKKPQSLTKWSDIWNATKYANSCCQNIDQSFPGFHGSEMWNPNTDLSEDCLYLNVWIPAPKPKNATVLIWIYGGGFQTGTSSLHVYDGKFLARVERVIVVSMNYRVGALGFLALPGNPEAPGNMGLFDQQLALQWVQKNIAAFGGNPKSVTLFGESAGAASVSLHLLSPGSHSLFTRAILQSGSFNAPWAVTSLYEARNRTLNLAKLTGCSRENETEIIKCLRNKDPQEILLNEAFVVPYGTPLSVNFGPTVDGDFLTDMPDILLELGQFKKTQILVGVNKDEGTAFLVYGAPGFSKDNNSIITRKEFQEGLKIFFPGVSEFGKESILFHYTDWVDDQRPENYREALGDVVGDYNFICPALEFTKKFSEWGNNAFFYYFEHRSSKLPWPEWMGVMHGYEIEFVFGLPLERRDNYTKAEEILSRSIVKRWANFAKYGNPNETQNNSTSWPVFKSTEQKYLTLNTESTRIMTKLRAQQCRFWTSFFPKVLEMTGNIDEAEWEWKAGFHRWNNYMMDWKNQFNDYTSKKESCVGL
T1 sequence (P22303 32-614): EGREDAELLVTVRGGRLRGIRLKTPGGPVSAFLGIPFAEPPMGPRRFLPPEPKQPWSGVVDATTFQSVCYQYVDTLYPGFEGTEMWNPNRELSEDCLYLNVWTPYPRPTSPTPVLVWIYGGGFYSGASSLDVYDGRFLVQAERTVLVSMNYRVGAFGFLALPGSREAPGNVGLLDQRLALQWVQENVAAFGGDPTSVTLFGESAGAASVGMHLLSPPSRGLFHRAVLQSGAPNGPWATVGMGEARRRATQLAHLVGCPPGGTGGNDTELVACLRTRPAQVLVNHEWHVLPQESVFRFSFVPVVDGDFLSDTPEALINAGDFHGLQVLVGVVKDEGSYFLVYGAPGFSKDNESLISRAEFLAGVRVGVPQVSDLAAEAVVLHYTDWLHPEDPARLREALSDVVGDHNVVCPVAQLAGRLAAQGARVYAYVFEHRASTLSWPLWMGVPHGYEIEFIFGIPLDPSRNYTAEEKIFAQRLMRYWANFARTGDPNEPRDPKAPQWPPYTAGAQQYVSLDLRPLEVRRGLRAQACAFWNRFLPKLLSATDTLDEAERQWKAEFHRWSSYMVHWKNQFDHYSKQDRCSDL

Cc1ccc(/C=C/c2ccoc2/C=N/O)cc1 [trans,syn-14, (E)-3-((E)-4-methylstyryl)furan-2-carbaldehyde oxime]
IC50 at 24 h [1]: > 400 µM | Ki (human BChE): 122 ± 47 µM

COc1ccc(/C=C\c2csc(/C=N/O)c2)cc1 [cis,syn-19′, (E)-4-((Z)-4-methoxystyryl)thiophene-2-carbaldehyde oxime]
inhibition of human AChE (in words) (human AChE): poor inhibitors | IC50 at 24 h [1]: > 400 µM | inhibition of human BChE (in words) (human BChE): poor inhibitors

CCCn1cc(C=Cc2ccc(C=NO)s2)nn1 [trans-7]
Ki (human AChE): 147 ± 43 µM | IC50 at 24 h [1]: > 400 µM | Ki (human BChE): 49 ± 11 µM

N#Cc1ccc(/C=C\c2ccsc2/C=N/O)cc1 [cis,syn-21, 4-((Z)-2-(2-((E)-(hydroxyimino)methyl)thiophen-3-yl)vinyl)benzonitrile]
Ki (human AChE): 171 ± 68 µM | IC50 (HepG2): 118 ± 46 µM | IC50 at 24 h [1]: ≤ 100 µM | Ki (human BChE): 59 ± 8 µM

N#Cc1ccc(/C=C\c2ccsc2/C=N\O)cc1 [cis,anti-21, 4-((Z)-2-(2-((Z)-(hydroxyimino)methyl)thiophen-3-yl)vinyl)benzonitrile]
Ki (human AChE): 187 ± 54 µM | IC50 at 24 h [1]: 182 ± 13 µM | Ki (human BChE): 53 ± 10 µM

O/N=C/c1ccc(/C=C\c2ccc(Cl)cc2)o1 [cis,syn-12, (E)-5-((Z)-4-chlorostyryl)furan-2-carbaldehyde oxime]
Ki (human AChE): 68 ± 37 µM | IC50 at 24 h [1]: 226 ± 10 µM | Ki (human BChE): 147 ± 37 µM

N#Cc1ccc(/C=C/c2ccoc2/C=N/O)cc1 [trans,syn-17, 4-((E)-2-(2-((E)-(hydroxyimino)methyl)furan-3-yl)vinyl)benzonitrile]
Ki (human AChE): 66 ± 24 µM | IC50 at 24 h [1]: > 400 µM | inhibition selectivity (AChE vs BChE) (human BChE): selective AChE inhibitors

O/N=C\c1ccc(/C=C/c2ccccc2O)s1 [trans,anti-4, (Z)-5-((E)-2-hydroxystyryl)thiophene-2-carbaldehyde oxime]
Ki (human AChE): 258 ± 90 µM | IC50 at 24 h [1]: 191 ± 21 µM | Ki (human BChE): 6.5 ± 0.5 µM

O/N=C/c1occc1/C=C\c1ccc(Cl)cc1 [cis,syn-16, (E)-3-((Z)-4-chlorostyryl)furan-2-carbaldehyde oxime]
IC50 (HepG2): 65 ± 13 µM | IC50 at 24 h [1]: ≤ 100 µM | Ki (human BChE): 119 ± 44 µM

Cc1ccc(/C=C/c2ccc(/C=N/O)o2)cc1 [trans,syn-10, (E)-5-((E)-4-methylstyryl)furan-2-carbaldehyde oxime]
Ki (human AChE): 111 ± 45 µM | IC50 (HepG2): 105 ± 4 µM | IC50 at 24 h [1]: ≤ 100 µM | Ki (human BChE): 38 ± 9.8 µM

Cc1ccc(/C=C\c2ccoc2/C=N/O)cc1 [cis,syn-14, (E)-3-((Z)-4-methylstyryl)furan-2-carbaldehyde oxime]
Ki (human AChE): 627 ± 245 µM | IC50 at 24 h [1]: 182 ± 32 µM | Ki (human BChE): 93 ± 30 µM

O=[N+]([O-])c1ccc(-n2cc(C=Cc3ccc(C=NO)s3)nn2)cc1 [trans-8, 5-(2-(1-(4-nitrophenyl)-1H-1,2,3-triazol-4-yl)vinyl)thiophene-2-carbaldehyde oxime]
Ki (human AChE): 199 ± 38 µM | IC50 at 24 h [1]: > 400 µM | Ki (human BChE): 143 ± 22 µM

ON=Cc1cn(Cc2ccc(F)cc2)nn1 [compound 1, 1-(4-fluorobenzyl)-1H-1,2,3-triazole-4-carbaldehyde oxime]
Ki (human AChE): 271 ± 29 µM | IC50 at 24 h [1]: > 400 µM | Ki (human BChE): 503 ± 32 µM

O/N=C\c1ccc(/C=C/c2ccco2)o1 [trans,anti-6, (Z)-5-((E)-2-(furan-2-yl)vinyl)furan-2-carbaldehyde oxime]
IC50 at 24 h [1]: ≥ 400 µM | Ki (human BChE): 123 ± 23 µM

Cc1ccccc1/C=C/c1oc2ccc3ccccc3c2c1/C=N/O [trans,syn-9, (E)-2-((E)-2-methylstyryl)naphtho[2,1-b]furan-1-carbaldehyde oxime]
Ki (human AChE): 172 ± 29 µM | IC50 at 24 h [1]: > 400 µM | Ki (human BChE): 303 ± 65 µM

Cc1ccc(/C=C/c2ccc(/C=N\O)o2)cc1 [trans,anti-10, (Z)-5-((E)-4-methylstyryl)furan-2-carbaldehyde oxime]
Ki (human AChE): 180 ± 40 µM | IC50 at 24 h [1]: > 400 µM

Cc1ccc(/C=C\c2ccsc2/C=N\O)cc1 [cis,anti-18, (Z)-3-((Z)-4-methylstyryl)thiophene-2-carbaldehyde oxime]
IC50 at 24 h [1]: > 400 µM | Ki (human BChE): 760 ± 122 µM

O/N=C/c1occc1/C=C/c1ccc(Cl)cc1 [trans,syn-16, (E)-3-((E)-4-chlorostyryl)furan-2-carbaldehyde oxime]
Ki (human AChE): 217 ± 160 µM | IC50 at 24 h [1]: > 400 µM

COc1ccc(/C=C/c2ccoc2/C=N\O)cc1 [trans,anti-15, (Z)-3-((E)-4-methoxystyryl)furan-2-carbaldehyde oxime]
inhibition of human AChE (in words) (human AChE): poor inhibitors | IC50 at 24 h [1]: > 400 µM | inhibition of human BChE (in words) (human BChE): poor inhibitors

N#Cc1ccc(/C=C\c2ccoc2/C=N/O)cc1 [cis,syn-17, 4-((Z)-2-(2-((E)-(hydroxyimino)methyl)furan-3-yl)vinyl)benzonitrile]
Ki (human AChE): 544 ± 105 µM | IC50 (HepG2): 120 ± 6 µM | IC50 at 24 h [1]: ≤ 100 µM

N#Cc1ccccc1/C=C\c1ccc(/C=N/O)s1 [cis,syn-5, 2-((Z)-2-(5-((E)-(hydroxyimino)methyl)thiophen-2-yl)vinyl)benzonitrile]
Ki (human AChE): 112 ± 21 µM | IC50 at 24 h [1]: ≥ 400 µM | Ki (human BChE): 17 ± 2 µM

Cc1ccc(/C=C/c2ccsc2/C=N/O)cc1 [trans,syn-18, (E)-3-((E)-4-methylstyryl)thiophene-2-carbaldehyde oxime]
Ki (human AChE): 59 ± 39 µM | IC50 at 24 h [1]: > 400 µM | inhibition selectivity (AChE vs BChE) (human BChE): selective AChE inhibitors

Cc1ccc(/C=C\c2ccsc2/C=N/O)cc1 [cis,syn-18, (E)-3-((Z)-4-methylstyryl)thiophene-2-carbaldehyde oxime]
IC50 at 24 h [1]: 269 ± 38 µM | Ki (human BChE): 86 ± 32 µM

ON=Cc1cn(Cc2ccc(Cl)cc2)nn1 [compound 2, 1-(4-chlorobenzyl)-1H-1,2,3-triazole-4-carbaldehyde oxime]
Ki (human AChE): 267 ± 92 µM | IC50 at 24 h [1]: > 400 µM | Ki (human BChE): 24 ± 2.9 µM | inhibition selectivity (AChE vs BChE) (human BChE): selective BChE inhibitors

O=[N+]([O-])c1ccc(-n2cc(C=NO)nn2)cc1 [compound 3, 1-(4-nitrophenyl)-1H-1,2,3-triazole-4-carbaldehyde oxime]
Ki (human AChE): 280 ± 30 µM | IC50 at 24 h [1]: > 400 µM | Ki (human BChE): 303 ± 66 µM
